Results on three compounds are retold here after patent publication US20250282782A1, “PYRAZOLOPYRAZINE COMPOUNDS AS SHP2 INHIBITORS” (Genzyme Corporation, priority 2021, published 2025).

The assay concerns the target human recombinant 6His-Nterm SHP2 full-length (Thr2-Arg593) (Homo sapiens (Human), UniProt Q06124). Description: SHP2 phosphatase assay (DiFMUP substrate, activating peptide). The format is biochemical. The method, then:
Inhibition of SHP2 phosphatase activity was evaluated using human recombinant 6His-Nterm (SEQ ID NO: 1) SHP2 full-length (Thr2-Arg593, R&D system), NsCs bi-phosphorylated activating peptide (NH2-LN(pY)AQLWHA(PEG8)LTI(pY)ATIRRF-Amide.acetate (SEQ ID NO: 2), Thermofischer Scientific) and DiFMUP as surrogate phosphatase substrate (Molecular Probes). All reactions were performed at room temperature in 384-well black polystyrene non-binding plate (Corning) with the assay buffer (50 mM HEPES-NaOH pH 7.2, 100 mM NaCl, 0.5 mM EDTA, 0.001% Brij35 including 0.02% BSA and 1 mM DTT added extemporaneously). SHP2 was pre-incubated at least 10 min with the activating peptide (0.2 nM and 100 nM, respectively). 10 μL of this mixture was added to the assay plate, that already contained 15 nL of the compound (1000-0.05 nM). After 30 min pre-incubation, the enzymatic reaction was initiated by the addition of 5 μL DiFMUP in assay buffer without BSA (20 μM). The reaction was stopped by the addition of 15 μL sodium pervanadate solution (100 μM) after 45 min incubation. The fluorescence signal was measured at excitation and emission wavelengths of 350 nm and 450 nm, respectively, using a Pherastar instrument (BMG-LabTech). Percentage of inhibition (I %) were calculated from the fluorescence signal at 450 nm of the positive and negative control using the following formula: […]
Positive control (Max): corresponds to the maximum fluorescence signal obtained in the presence of 15 nL DMSO replacing the inhibitor in the pre-incubation step.
Negative control (Min): corresponds to the minimum signal obtained in the presence of 1 μM of RMC-4550, the structure of which is shown below:
The IC50 were then calculated from a dose-response curve of 10 concentrations of tested compound using the 4-parameter logistic model:
The parameters A and (A+C) are the lower and upper limits, B is the slope of the curve at the inflexion point, M parameter is the logarithm of the abscissa at the inflexion point, and X is the concentration of compound.

The mark [1] stands for this setting: full-length SHP2 0.2 nM pre-activated with bi-phosphorylated peptide 100 nM, DiFMUP 20 μM, 10-concentration dose-response.

SMILES strings stand for the structures.

Sequence of human recombinant 6His-Nterm SHP2 full-length (Thr2-Arg593) (Q06124 2-593): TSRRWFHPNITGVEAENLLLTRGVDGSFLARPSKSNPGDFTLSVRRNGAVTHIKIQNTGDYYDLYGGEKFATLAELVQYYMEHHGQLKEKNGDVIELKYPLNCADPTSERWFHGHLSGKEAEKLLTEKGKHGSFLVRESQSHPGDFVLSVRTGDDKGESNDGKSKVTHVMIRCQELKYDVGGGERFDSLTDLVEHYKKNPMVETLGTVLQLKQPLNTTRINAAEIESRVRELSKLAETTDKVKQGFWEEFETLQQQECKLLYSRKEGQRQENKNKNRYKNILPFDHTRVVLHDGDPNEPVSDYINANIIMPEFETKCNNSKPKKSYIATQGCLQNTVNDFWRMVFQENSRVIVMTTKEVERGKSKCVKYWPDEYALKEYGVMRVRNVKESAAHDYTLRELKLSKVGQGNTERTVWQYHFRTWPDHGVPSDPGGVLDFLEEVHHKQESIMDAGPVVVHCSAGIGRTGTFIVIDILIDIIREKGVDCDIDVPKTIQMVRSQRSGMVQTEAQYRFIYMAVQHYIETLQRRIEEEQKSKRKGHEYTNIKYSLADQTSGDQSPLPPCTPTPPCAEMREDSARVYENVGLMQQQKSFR

For the compound `COc1cc2c(cn1)CC1(CCN(c3nc(C)c(-c4cnn(C)c4C)n4nccc34)CC1)[C@@H]2N` [Compound 132, (5S)-1′-[7-(1,5-dimethylpyrazol-4-yl)-6-methyl-pyrazolo[1,5-a]pyrazin-4-yl]-3-methoxy-spiro[5,7-dihydrocyclopenta[c]pyridine-6,4′-piperidine]-5-amine], the concentration for half-maximal inhibition (IC50) (as a rule, the concentration at which inhibition is half-maximal) (Table 11 summary) turned out to be 0.034 µM and the IC50 under setting [1] worked out at 0.034 µM.

Consider `Cc1nc(N2CCC3(CC2)Cc2ccncc2[C@H]3N)c2ccnn2c1-c1cnn(C)c1C` [Compound 133, (7S)-1′-[7-(1,5-dimethylpyrazol-4-yl)-6-methyl-pyrazolo[1,5-a]pyrazin-4-yl]spiro[5,7-dihydrocyclopenta[c]pyridine-6,4′-piperidine]-7-amine], for which the IC50 was determined as 0.021 µM (Table 11 summary) and 0.021 µM under setting [1].

Regarding `Cc1nc(N2CCC3(CC2)Cc2ncccc2[C@H]3N)c2c(CO)cnn2c1-c1ccccc1F` [Compound 226, [4-[(5S)-5-aminospiro[5,7-dihydrocyclopenta[b]pyridine-6,4′-piperidine]-1′-yl]-7-(2-fluorophenyl)-6-methyl-pyrazolo[1,5-a]pyrazin-3-yl]methanol], the IC50 (Table 11 summary) is more than 1 µM and the IC50 under setting [1] is more than 1 µM.
